Reference: patent US11389449B2, “Treatment of metabolic syndrome with an sGC stimulator” (Cyclerion Therapeutics, Inc., priority 2017, dated 2022)

How the values were obtained:
[1] = tested on: ZSF1 obese rats; assay: Fasting serum insulin in ZSF1 rats (Rat Insulin ELISA); type: in vivo
Excerpt: Blood and 24-hour urine samples were obtained from all animals at day 0 (15 weeks of age; prior to the initiation of enalapril treatment). Animals in Groups 3, 7, 8 and 9 were placed on drinking water containing enalapril and kept on Purina 5008 rodent chow (C13000). Animals in Group 1, 2, 4, 5 and 6 were kept on Purina 5008 rodent chow and drinking water. Ten days after the initiation of enalapril treatment, blood and 24-hour urine samples were collected from all animals. After day 10 blood and urine collections, animals in Groups 4, 5 and 6 received Compound I at 1, 3 and 10 mg/kg/day, respectively for 11 weeks. In addition to enalapril treatment, animals in Groups 7, 8 and 9 received Compound I at 1, 3 and 10 mg/kg/day, respectively for an additional 11 weeks.
10 weeks after the initiation of Compound I treatment, animals (27 weeks of age) were fasted for 18 hours. Serum samples were collected for the measurement of fasting insulin levels. Serum insulin levels were determined using the Rat Insulin ELISA kit (Cat #ELR-Insulin, RayBiotech, Inc.)
The data are expressed as mean±SEM. […] One-tailed tests were used for comparison of variables. Statistical significance is indicated by P values less than 0.05.

[2] = tested on: patients with stable type 2 diabetes and hypertension; assay: Open-label Phase 2a trial of escalating doses (NCT02906579), metabolic assessments and tolerability; type: in vivo, human; conditions: for Change Serum Insulin, Mean / Change Serum Insulin, Median: fasting
Excerpt: The primary objectives of this clinical study (ClinicalTrials.gov Identifier: NCT02906579) were to assess the acute effects of escalating doses of Compound I on endothelial function (using EndoPAT™—Itamar Medical; Caesarea, Israel- to measure fingertip small vessel pulse volume), blood pressure, heart rate/pulse, safety and tolerability in patients with Type 2 diabetes and a history of hypertension. Patients in this trial were on stable medications for glucose control (blood glucose lowering medication) and hypertension (including an ARB or an ACEi). Secondary measurements included assessment of fasting glucose levels, fasting insulin levels, hemoglobin A1C (HbA1C) levels, serum cholesterol levels, serum triglyceride levels, BMI and body weight.
Allocation: non-randomized; Intervention Model: single group assignment; Masking: non (open-label), Primary purpose: treatment. Single cohort of 11 patients confined to unit. Single clinical site.
Clinic Period: The Clinic Period began at Check-in on Day-1 and ended at Discharge on Day 19. Patients who met eligibility criteria based on Screening Visit assessments were admitted to the Study Center on Day-1 for procedures to confirm eligibility and were confined to the Study Center until Discharge on Day 19. Patients received a standard diet for diabetics. On Days 1 to 18, following an overnight fast of ≥8 hours, eligible patients received once-daily study drug. Safety (adverse event [AE] collection, vital signs, fasting glucose, serum insulin, electro cardiograms [ECGs]) and pharmacokinetic (PK) assessments, including blood collections, were performed at pre-specified times daily (see Schedule of Events). Pharmacodynamic assessments was performed on a 3-day cycle that repeated for each of the 6 dosing cycles (see FIG. 29 and Schedule of Events): the first day included supine and standing cuff BP and pulse measurements; the second day include ambulatory BP monitoring (ABPM), and the third day will include EndoPAT assessments of endothelial function. In addition, blood samples were collected for optional determination of exploratory biomarkers, including metabolic markers associated with metabolic syndrome (see Schedule of Events). On Day 19, after assessments were completed, patients were discharged from the Study Center at the Investigator's discretion. Patients were rescreened should they discontinue in the Screening Period due to visit window deviations or other administrative reasons. In addition, laboratory values, ECG values, or BPs that were outside the range specified in the protocol were repeated to confirm eligibility during the screening period at the Investigator's discretion after consultation with the Medical Monitor.
Escalating single doses (in 3-day cycles) of 10, 20, 30, 40 or 50 mg of Compound I. Compound I has previously been described in WO2014144100. Metabolic parameters, including fasting serum glucose levels, fasting serum insulin levels, hemoglobin A1C (HhA1C) levels, serum lipid levels and body weight, were determined on the second day of each 3-day cycle.
Fasting glucose (mg/dL) was measured in serum both enzymatically. Insulin (pmol/L) was measured by ECLIA. Cholesterol (mg/dL) was measured enzymatically. Triglycerides (mg/dL) were measured enzymatically. HbA1c (%) was measured using Roche Tina Quant.
Compound I was administered as multiples of a 5-mg oral tablet dosage form. Placebo was administered as multiples of a 5 mg tablet. Compound I was formulated as a spray dried dispersion formulation as described in WO2017095697.
Patients received orally administered study drug at approximately the same time (±15 minutes) every day in the morning (8 to 10 AM), after an overnight fast of at least 8 hours. Patients took multiple tablets together as needed to complete the total dose. […]

[3] = tested on: obese/high fat diet C57Bl/6J mice; assay: Diet induced obesity (DIO) mouse model: body weight and food intake; type: in vivo; conditions: DIO HFD mice, approx 6 mg/kg in diet
Excerpt: The objective of this animal study was to evaluate the effects of Compound I in the mouse diet induced obesity (DIO) model. Assessments included body weight, food intake, oral glucose tolerance test (OGTT) and fasting plasma biomarkers of metabolic control.
Male C57Bl/6J mice with baseline body weights of 25.0-29.0 grams (lean controls) and 31.5-45.0 grams (obese/high fat diet treated) respectively, were used for this study. The lean mice (n=8) were maintained on a standard chow diet. The obese mice were given 60% high fat diet (HFD) starting at 6 weeks of age. All animals were allowed free access to drinking water and chow. The study was begun when the mice were 12 weeks of age and concluded after 4 weeks (16 weeks of age). The obese control group (n=8 mice) was maintained on HFD. The Compound I group (n=8 obese mice) was treated with HFD containing 90 mg Compound I/kg (an approximate dose of 6 mg/kg). Body weights were determined twice weekly and food intake was measured daily for 28 days. An OGTT was performed on each animal at day 28 or 29 and the animals were sacrificed on the following day. On the terminal day, 3 hour fasted blood was collected for compound concentrations and plasma biomarkers analysis including glucose, insulin and triglycerides. Organs were collected, weighed and snap frozen in liquid nitrogen for further analysis.

[4] = after escalation 10 to 50 mg over 15 days

SMILES: OC(CNc1nc(-c2cc(-c3ccon3)n(Cc3ccccc3F)n2)ncc1F)(C(F)(F)F)C(F)(F)F [Compound I]
- Fasting Insulin ([1]; week 10, Compound I 1 mpk): 15.7 ± 3.5 μIU/mL
- Fasting Insulin ([1]; week 10, Compound I 3 mpk): 15.6 ± 2.7 μIU/mL
- Fasting Insulin ([1]; week 10, Compound I 10 mpk): 11.7 ± 1.6 μIU/mL
- Change Serum Insulin, Mean ([2]; 10 mg once daily cycle): 0.2 µIU/mL
- Change Serum Insulin, Median ([2]; 10 mg once daily cycle): -0.5 µIU/mL
- Change Serum Insulin, Mean ([2]; 20 mg once daily cycle): -0.4 µIU/mL
- Change Serum Insulin, Median ([2]; 20 mg once daily cycle): 0.1 µIU/mL
- Change Serum Insulin, Mean ([2]; 30 mg once daily cycle): -2.61 µIU/mL
- Change Serum Insulin, Median ([2]; 30 mg once daily cycle): -2 µIU/mL
- Change Serum Insulin, Mean ([2]; 40 mg once daily cycle): -2.49 µIU/mL
- Change Serum Insulin, Median ([2]; 40 mg once daily cycle): -1.9 µIU/mL
- Change Serum Insulin, Mean ([2]; 50 mg once daily cycle): -2.7 µIU/mL
- Change Serum Insulin, Median ([2]; 50 mg once daily cycle): -0.7 µIU/mL
- reduction in mean fasting glucose level between placebo cycle (day 2) and end of treatment ([2]; after escalation 10, 20, 30, 40, 50 mg single oral daily dose): 20%
- reduction in mean cholesterol level between baseline (day-1) and end of treatment [2, 4]: 23%
- reduction in serum TGs between day-1 (baseline) and day 19 [2, 4]: about 12%
- mean reduction of body weight ([2]; by end of treatment day 19): about 3.5 kg
- mean serum TG level ([2]; day 19): 122 mg/dL
- mean serum cholesterol level ([2]; day 19): 142 mg/dL
- Mean fasting glucose level ([2]; day 19 (end of treatment) after escalation 10 to 50 mg once daily): 114 mg/dL
- HbA1C mean reduction from baseline ([2]; day 19, actual HbA1C reading): 0.40%
- mean body weight relative to baseline (day-1) ([2]; each dosage 10 to 50 mg, cumulative over dose escalation): decreased for all dosages
- change between mean serum cholesterol value on day 19 (end of treatment) and day 32 ([2]; follow-up after end of dosing): +43.3 mg/dL
- tolerability ([2]; multiple dose escalation 10 to 50 mg once daily): well tolerated
- body weight gain change vs obese controls ([3]; Day 28, P<0.0001): −37%
- increase in food intake vs obese controls ([3]; Day 28, P<0.05): 11%
- cumulative food intake vs obese controls ([3]; days 12-14 and 16-28): Significant increases
- body weight gain vs obese controls ([3]; from 0.5 weeks for the duration of the study): significant reductions
